# Measurements taken from PMC9519446, “Discovery of an Orally Active Benzoxaborole Prodrug Effective in the Treatment of Chagas Disease in Non-human Primates” (Nature microbiology, 2022).
# Columns and labels:
# [1] = Luminex-based multiplex serological assay (IgG to recombinant T. cruzi proteins); format: in vivo, rhesus macaques (Macaca mulatta); conditions: treated animal T19
# Method: (§1) Luminex-based multiplex serological assays were performed as previously described, [17]. For a number of smaller proteins, fusions of up to 2 individual genes are employed for some target proteins in order to expand the array of antibodies being detected while controlling costs and complexity of the assay. (TritrypDb.org identifiers: Tc1= fusion of TcBrA4_0116860 and TcYC6_0028190; Tc2= fusion of TcBrA4_0088420 and TcBrA4_0101960; Tc3 = fusion of TcBrA4_0104680 and TcBrA4_0101980; Tc4= fusion of TcBrA4_0028480 and TcBrA4_0088260; Tc5 = fusion of TcYC6_0100010 and TcBrA4_0074300; Tc7 = fusion of TcYC6_0083710 and TcBrA4_0130080; Tc8 = TcYC6_0037170; Tc11 = TcYC6_0124160; Tc17 = fusion of TcBrA4_0028230 and TcBrA4_0029760; Kn107 = TcCLB.508355.250; G10 = TcCLB.504199.20). Macaque antibody binding to individual beads in the Multiplex assays was detected with donkey anti-human IgG (H+L) conjugated to phycoerythrin (Jackson ImmunoResearch) in a 1:200 dilution.
# [2] = tested on: recombinant T. cruzi proteins; assay: as above; format: in vivo, rhesus macaques (Macaca mulatta); conditions: for IgG response to G10 (36) / IgG response to Kn107 (20) / IgG response to Tc1 (3) / IgG response to Tc2 (6) / IgG response to Tc3 (11) / IgG response to Tc4 (16) / IgG response to Tc5 (22) / IgG response to Tc7 (27) / IgG response to Tc8 (31) / IgG response to Tc11 (35) / IgG response to Tc17 (51) / IgG response to Tc lysate (50): treated animal T19
# Method: as §1
structure (smiles),measurement,setting,value
Cc1c(C(=O)N[C@H](C(=O)OCC2CCOCC2)C(C)C)ccc2c1B(O)OC2 [AN15368],IgG response to GFP (58),[1]; 2017-09-13,58.5
same,IgG response to GFP (58),[1]; 2017-11-17,-25.0
same,IgG response to GFP (58),[1]; 2017-12-06,27.0
same,IgG response to GFP (58),[1]; 2017-12-20,-24.3
same,IgG response to GFP (58),[1]; 2018-01-09,103.5
same,IgG response to GFP (58),[1]; 2018-01-23,-17.8
same,IgG response to GFP (58),[1]; 2018-02-27,-110.5
same,IgG response to GFP (58),[1]; 2018-03-28,-15.8
same,IgG response to GFP (58),[1]; 2019-02-19,-19.0
same,IgG response to GFP (58),[1]; 2020-06-18,-50.3
same,IgG response to GFP (58),[1]; 2021-05-20,-25.5
same,IgG levels to recombinant T. cruzi proteins over time,"[2]; treated NHP, up to 42 months after end of treatment",Declining IgG levels
same,IgG response to G10 (36),[2]; 2017-09-13,45.3
same,IgG response to Kn107 (20),[2]; 2017-09-13,5.3
same,IgG response to Tc1 (3),[2]; 2017-09-13,4561.8
same,IgG response to Tc2 (6),[2]; 2017-09-13,786.0
same,IgG response to Tc3 (11),[2]; 2017-09-13,-22.8
same,IgG response to Tc4 (16),[2]; 2017-09-13,35.3
same,IgG response to Tc5 (22),[2]; 2017-09-13,-9.5
same,IgG response to Tc7 (27),[2]; 2017-09-13,2389.8
same,IgG response to Tc8 (31),[2]; 2017-09-13,14652.0
same,IgG response to Tc11 (35),[2]; 2017-09-13,292.3
same,IgG response to Tc17 (51),[2]; 2017-09-13,1360.0
same,IgG response to Tc lysate (50),[2]; 2017-09-13,2591.5
same,IgG response to G10 (36),[2]; 2017-11-17,2.8
same,IgG response to Kn107 (20),[2]; 2017-11-17,7.0
same,IgG response to Tc1 (3),[2]; 2017-11-17,2671.5
same,IgG response to Tc2 (6),[2]; 2017-11-17,364.3
same,IgG response to Tc3 (11),[2]; 2017-11-17,25.0
same,IgG response to Tc4 (16),[2]; 2017-11-17,39.3
same,IgG response to Tc5 (22),[2]; 2017-11-17,-11.5
same,IgG response to Tc7 (27),[2]; 2017-11-17,1520.3
same,IgG response to Tc8 (31),[2]; 2017-11-17,12143.5
same,IgG response to Tc11 (35),[2]; 2017-11-17,154.0
same,IgG response to Tc17 (51),[2]; 2017-11-17,1317.5
same,IgG response to Tc lysate (50),[2]; 2017-11-17,1854.3
same,IgG response to G10 (36),[2]; 2017-12-06,38.0
same,IgG response to Kn107 (20),[2]; 2017-12-06,21.8
same,IgG response to Tc1 (3),[2]; 2017-12-06,2769.0
same,IgG response to Tc2 (6),[2]; 2017-12-06,433.8
same,IgG response to Tc3 (11),[2]; 2017-12-06,-25.8
same,IgG response to Tc4 (16),[2]; 2017-12-06,11.8
same,IgG response to Tc5 (22),[2]; 2017-12-06,33.5
same,IgG response to Tc7 (27),[2]; 2017-12-06,1546.5
same,IgG response to Tc8 (31),[2]; 2017-12-06,12008.3
same,IgG response to Tc11 (35),[2]; 2017-12-06,211.8
same,IgG response to Tc17 (51),[2]; 2017-12-06,1420.3
same,IgG response to Tc lysate (50),[2]; 2017-12-06,1538.8
same,IgG response to G10 (36),[2]; 2017-12-20,-55.8
same,IgG response to Kn107 (20),[2]; 2017-12-20,36.8
same,IgG response to Tc1 (3),[2]; 2017-12-20,2355.8
same,IgG response to Tc2 (6),[2]; 2017-12-20,410.8
same,IgG response to Tc3 (11),[2]; 2017-12-20,34.8
same,IgG response to Tc4 (16),[2]; 2017-12-20,99.0
same,IgG response to Tc5 (22),[2]; 2017-12-20,41.0
same,IgG response to Tc7 (27),[2]; 2017-12-20,1365.3
same,IgG response to Tc8 (31),[2]; 2017-12-20,9274.0
same,IgG response to Tc11 (35),[2]; 2017-12-20,116.0
same,IgG response to Tc17 (51),[2]; 2017-12-20,1322.5
same,IgG response to Tc lysate (50),[2]; 2017-12-20,1584.0
same,IgG response to G10 (36),[2]; 2018-01-09,36.5
same,IgG response to Kn107 (20),[2]; 2018-01-09,76.0
same,IgG response to Tc1 (3),[2]; 2018-01-09,3757.5
same,IgG response to Tc2 (6),[2]; 2018-01-09,565.5
same,IgG response to Tc3 (11),[2]; 2018-01-09,64.8
same,IgG response to Tc4 (16),[2]; 2018-01-09,81.0
same,IgG response to Tc5 (22),[2]; 2018-01-09,-22.0
same,IgG response to Tc7 (27),[2]; 2018-01-09,1442.3
same,IgG response to Tc8 (31),[2]; 2018-01-09,13021.3
same,IgG response to Tc11 (35),[2]; 2018-01-09,357.0
same,IgG response to Tc17 (51),[2]; 2018-01-09,2026.0
same,IgG response to Tc lysate (50),[2]; 2018-01-09,2194.3
